Assay results from patent US20240299359A1, “PHARMACEUTICAL COMPOSITION FOR ANIMALS CONTAINING 5-HYDROXY-METHYLIMIDAZOLIDINE-2,4-DIONE COMPOUND AS ACTIVE INGREDIENT” (KYONGBO PHARM. CO., LTD., priority 2021, published 2024).

Assay: 13-week repeated oral toxicity: weight measurement
Format: in vivo, beagle
Conditions: for Weight: in kg (unit assumed)
Procedure: During the 13-week test period starting from the day before administration, the weight was measured a total of 15 times before administration (pre), before administration on the day of administration, and every week over the 13-week test period after the first administration at a predetermined time (remaining feed measurement time) before administration of the test substance (on every Tuesday during the test period).

For `CN1C(=O)NC(=O)C1O` (stereo not drawn) [KBP-001, 5-hydroxy-1-methylimidazolidine-2,4-dione], the Weight, Mean (500 mg/kg repeated oral (G3), female, week 5, mean) was 9.8 kg, the Weight, Mean (500 mg/kg repeated oral (G3), female, week 6, mean) was 9.8 kg and the Weight, Mean (500 mg/kg repeated oral (G3), female, week 7, mean) was 9.8 kg. The Weight, Mean (500 mg/kg repeated oral (G3), female, week 8, mean) was 9.8 kg, the Weight, Mean (500 mg/kg repeated oral (G3), female, week 9, mean) was 9.8 kg and the Weight, Mean (500 mg/kg repeated oral (G3), female, week 10, mean) was 9.8 kg. For the same compound, the Weight, Mean (500 mg/kg repeated oral (G3), female, week 11, mean) was 9.9 kg, the Weight, Mean (500 mg/kg repeated oral (G3), female, week 12, mean) was 9.9 kg and the Weight, Mean (500 mg/kg repeated oral (G3), female, week 13, mean) was 10 kg. It also gave a Weight, Mean (500 mg/kg repeated oral (G3), female, week pre, mean) of 9.5 kg, a Weight (500 mg/kg repeated oral (G3), male, week 0, individual animals) of 10.0 and a Weight, Mean (500 mg/kg repeated oral (G3), male, week 0, mean) of 9.9 kg. It also gave a Weight, Mean (500 mg/kg repeated oral (G3), male, week 1, mean) of 10 kg, a Weight, Mean (500 mg/kg repeated oral (G3), male, week 2, mean) of 9.9 kg and a Weight, Mean (500 mg/kg repeated oral (G3), male, week 3, mean) of 9.9 kg. For the same compound, the Weight, Mean (500 mg/kg repeated oral (G3), male, week 4, mean) was 10 kg, the Weight, Mean (500 mg/kg repeated oral (G3), male, week 5, mean) was 10.1 kg and the Weight (500 mg/kg repeated oral (G3), male, week 6, individual animals) was 10.1. The Weight, Mean (500 mg/kg repeated oral (G3), male, week 6, mean) was 10.1 kg, the Weight (500 mg/kg repeated oral (G3), male, week 7, individual animals) was 10.1 and the Weight, Mean (500 mg/kg repeated oral (G3), male, week 7, mean) was 10.1 kg. The Weight (500 mg/kg repeated oral (G3), male, week 8, individual animals) was 10.3, the Weight, Mean (500 mg/kg repeated oral (G3), male, week 8, mean) was 10.1 kg and the Weight (500 mg/kg repeated oral (G3), male, week 9, individual animals) was 10.4. It also gave a Weight, Mean (500 mg/kg repeated oral (G3), male, week 9, mean) of 10.1 kg, a Weight (500 mg/kg repeated oral (G3), male, week 10, individual animals) of 10.4 and a Weight, Mean (500 mg/kg repeated oral (G3), male, week 10, mean) of 10.2 kg. It also gave a Weight (500 mg/kg repeated oral (G3), male, week 11, individual animals) of 10.4, a Weight, Mean (500 mg/kg repeated oral (G3), male, week 11, mean) of 10.1 kg and a Weight (500 mg/kg repeated oral (G3), male, week 12, individual animals) of 10.3. It also gave a Weight, Mean (500 mg/kg repeated oral (G3), male, week 12, mean) of 10.2 kg, a Weight (500 mg/kg repeated oral (G3), male, week 13, individual animals) of 10.5 and a Weight, Mean (500 mg/kg repeated oral (G3), male, week 13, mean) of 10.3 kg. It also gave a Weight (500 mg/kg repeated oral (G3), male, week pre, individual animals) of 10.1, a Weight, Mean (500 mg/kg repeated oral (G3), male, week pre, mean) of 10 kg and a Weight, Mean (1,000 mg/kg repeated oral (G4), female, week 0, mean) of 9.4 kg. It also gave a Weight, Mean (1,000 mg/kg repeated oral (G4), female, week 1, mean) of 9.4 kg, a Weight, Mean (1,000 mg/kg repeated oral (G4), female, week 2, mean) of 9.3 kg and a Weight, Mean (1,000 mg/kg repeated oral (G4), female, week 3, mean) of 9.4 kg. For the same compound, the Weight, Mean (1,000 mg/kg repeated oral (G4), female, week 4, mean) was 9.6 kg, the Weight, Mean (1,000 mg/kg repeated oral (G4), female, week 5, mean) was 9.5 kg and the Weight, Mean (1,000 mg/kg repeated oral (G4), female, week 6, mean) was 9.4 kg. The Weight, Mean (1,000 mg/kg repeated oral (G4), female, week 7, mean) was 9.4 kg, the Weight, Mean (1,000 mg/kg repeated oral (G4), female, week 8, mean) was 9.5 kg and the Weight, Mean (1,000 mg/kg repeated oral (G4), female, week 9, mean) was 9.7 kg. The Weight, Mean (1,000 mg/kg repeated oral (G4), female, week 10, mean) was 0.8 kg, the Weight, Mean (1,000 mg/kg repeated oral (G4), female, week 11, mean) was 9.8 kg and the Weight, Mean (1,000 mg/kg repeated oral (G4), female, week 12, mean) was 9.8 kg. For the same compound, the Weight, Mean (1,000 mg/kg repeated oral (G4), female, week 13, mean) was 9.8 kg, the Weight, Mean (1,000 mg/kg repeated oral (G4), female, week pre, mean) was 9.4 kg and the Weight, Mean (1,000 mg/kg repeated oral (G4), male, week 0, mean) was 10.2 kg. For the same compound, the Weight, Mean (1,000 mg/kg repeated oral (G4), male, week 1, mean) was 10.2 kg, the Weight, Mean (1,000 mg/kg repeated oral (G4), male, week 2, mean) was 10.1 kg and the Weight, Mean (1,000 mg/kg repeated oral (G4), male, week 3, mean) was 10 kg. For the same compound, the Weight, Mean (1,000 mg/kg repeated oral (G4), male, week 4, mean) was 10.2 kg, the Weight, Mean (1,000 mg/kg repeated oral (G4), male, week 5, mean) was 10.3 kg and the Weight, Mean (1,000 mg/kg repeated oral (G4), male, week 6, mean) was 10 kg. It also gave a Weight, Mean (1,000 mg/kg repeated oral (G4), male, week 7, mean) of 10.1 kg, a Weight, Mean (1,000 mg/kg repeated oral (G4), male, week 8, mean) of 10.1 kg and a Weight, Mean (1,000 mg/kg repeated oral (G4), male, week 9, mean) of 10.2 kg. The Weight, Mean (1,000 mg/kg repeated oral (G4), male, week 10, mean) was 10.2 kg, the Weight, Mean (1,000 mg/kg repeated oral (G4), male, week 11, mean) was 10.2 kg and the Weight, Mean (1,000 mg/kg repeated oral (G4), male, week 12, mean) was 10.2 kg. The Weight, Mean (1,000 mg/kg repeated oral (G4), male, week 13, mean) was 10.2 kg, the Weight, Mean (1,000 mg/kg repeated oral (G4), male, week pre, mean) was 10.2 kg and the “weight compared with control group” value (repeated oral once a day for 13 weeks, male and female) was “no significant differences in weight from the control group was observed”.
